# Source: patent US20210214560A1, “COMPOUND, COLORING COMPOSITION, INK, TONER, COLORING RESIN COMPOSITION, AND COMPOSITION FOR DYEING FIBER” (FUJIFILM Corporation, priority 2018, published 2021)
# Assays:
# Format in all cases: physicochemical
# [1] = Evaluation of heat stability (heat resistance), powder heated at 180° C. for 5 minutes; settings: oven 180° C. for 5 minutes, A/A0×100, absorbance in tetrahydrofuran
# Method: (§1) Heat stability of each compound was evaluated by the following procedure. 10 mg of the powder of each compound was dissolved in 500 mL of tetrahydrofuran, and the absorption spectrum was measured to obtain a reference absorbance (A0). On the other hand, 10 mg of the powder of each compound was weighed in a 4 cm square aluminum cup, placed in an oven, and heated at 180° C. for 5 minutes. The entire amount of the powder after heating was dissolved in 500 mL of tetrahydrofuran, and the absorption spectrum was measured to obtain an absorbance (A) after the heating test. The residual rate of each compound was calculated by the following expression to evaluate heat stability.
# Residual rate of compound (%)=A/A0×100
# [2] = Evaluation of maximum absorption wavelength (absorption spectrum in tetrahydrofuran solution); settings: 1×10^−6 mol/L
# [3] = Production of coloring resin composition (kneading with polybutylene terephthalate at 190° C.); settings: 1 g colorant with 100 g polybutylene terephthalate, biaxial extruder, cylinder temperature 190° C.
# Method: Using a henschel mixer, a blend of 100 g of polybutylene terephthalate (manufactured by Wintech Polymer Ltd., trade name, DURANEX 2002, melting point: 225° C.) and 1 g of the compound according to the embodiment of the present invention (compound (1-48)) was supplied to a biaxial extruder (equipment: TEX28V manufactured by Japan Steel Works, Ltd., screw speed: 200 rotations per minute (rpm)), and kneading was performed at a cylinder temperature of 190° C. to obtain a coloring resin pellet (coloring resin composition). The torque of the extruder was stable and extrusion could be continued, and the discharged strands could be stably conveyed to the pelletizer.
# A coloring resin pellet was obtained in the same manner as in Example 25, except that the compound (1-48) of Example 25 was changed to OIL BLACK HBB (manufactured by Orient Chemical Industries Co., Ltd., trade name).
# [4] = Production of toner (melting and mixing with resin at 150° C.); settings: 3 g compound with 100 g styrene-acrylic acid ester copolymer, melted and mixed at 150° C.
# Method: After mixing and pulverizing 3 g of the compound according to the embodiment of the present invention (compound (1-36)) and 100 g of a resin for toner [styrene-acrylic acid ester copolymer; HIMER TB-1000F (trade name, manufactured by Sanyo Chemical Industries, Ltd.)] with a ball mill, the resultant was heated at 150° C. to be melted and mixed, and the results were cooled, roughly pulverized using a hammer mill, and then finely pulverized using a fine pulverizer with an air-jet system. Furthermore, particles which have a particle diameter of 1 to 20 μm were classified and selected to produce a toner.
# 900 g of carrier iron powder (EFV250/400, trade name, manufactured by Powdertech Co., Ltd.) were uniformly mixed with 10 g of the toner to prepare a developer. Using this developer, copying was performed with a dry type plain paper electrophotographic copier [NP-5000, trade name, manufactured by Canon Inc.].
# [5] = Evaluation 2 of heat stability, powder heated at 200° C. for 5 minutes; settings: oven 200° C. for 5 minutes, A2/A0×100, absorbance in tetrahydrofuran
# Method: as §1, with “200°” for “180°”, “(A2)” for “(A)”
# Residual rate of compound (%)=A2/A0×100
# [6] = optical path length 10 mm (Table 7)
# [7] = optical path length 10 mm (Table 9)
SMILES,Residual rate of compound [1] [%],"Absorption maximum wavelength [2, 6] [nm]","Molar light absorption coefficient [2, 6]",Contamination due to pyrolysis in kneading of coloring resin pellet [3],Pyrolysis in melting and mixing in the toner production [4],"Absorption maximum wavelength [2, 7] [nm]","Molar light absorption coefficient [2, 7] [L/mol/cm]",Residual rate of compound [5] [%]
CC(=O)c1ccccc1N=Nc1ccc(N=Nc2ccc3c4c(cccc24)NC(C)(C)N3)c2ccccc12 [(1-48)],99,624,"34,100 L · mol^−1 · cm^−1",No contamination due to pyrolysis was observed,,,,
CC1(C)Nc2cccc3c(N=Nc4ccc(N=Nc5ccccc5[N+](=O)[O-])c5ccccc45)ccc(c23)N1 [(1-36)],98,638,"30,100 L · mol^−1 · cm^−1",,Pyrolysis in melting and mixing in the toner production was reduced,,,
CC1(C)Nc2cccc3ccc(N=Nc4ccc(N=Nc5ccccc5[N+](=O)[O-])c5ccccc45)c(c23)N1 [(3-5)],,,,,,627,32100,95
COC(=O)c1ccccc1N=Nc1ccc(N=Nc2ccc3cccc4c3c2NC(C)(C)N4)c2ccccc12 [(3-3)],,,,,,586,29200,86
CC1(C)Nc2cccc3ccc(N=Nc4ccc(N=Nc5ccccc5Cl)c5ccccc45)c(c23)N1 [(3-1)],,,,,,612,36300,83
CCCC1(C)Nc2cccc3ccc(N=Nc4ccc(N=Nc5ccccc5Cl)c5ccccc45)c(c23)N1 (centres unmarked) [Compound (3-7)],,,,,,617,36200,85
